# Assays:
# SUM149 = test: Propidium iodide (PI) assay, 48 h; settings: SUM149, 48 h, 3 µM
# Description: The first step was to evaluate if the compounds display cytotoxicity against the adherent cells. Propidium iodide (PI) assay was performed for the drug resistant solid tumor cellular models (triple negative breast cancer models: SUM149 and MDA-MB-231) for 48 h (Figure 5) [30, 31].
# Aqueous solubility = assay type: physicochemical; settings: physiological pH (7.40), compared to controls
# From the text: (§1) To gain further information regarding intracellular compound localization, studies were extended to include a marker for the ER (Figure 8). The staining pattern for the individual probes are shown in Figure 8A (ER), Figure 8B (Lysosome) and Figure 8D (probe 9a). […] Moreover, when all three channels were merged, white specks were observed, indicating co-localization of probe 9a with cellular structures that are stained by both ER and lysosomal marker dyes (Figure 8F). […] These mechanisms provide a plausible explanation for the lower potency of compound 9 compared to compound 10. Finally, in vitro ADME (absorption, distribution, metabolism, and elimination) profiles were evaluated for compounds 9 and 10 to compare with the obtained cellular data (Supplementary Material, Figure S10). The aqueous solubility properties at physiological pH (7.40) of compounds 9 and 10 were good compared to controls. […] The combined findings indicate that the steric-effects of the hydroxysuccinate appendage of compound 10 renders it less prone to degradation by lysosomal activity or other competing cellular removal mechanisms.
# KOPN-8 [1] = test: Cell cycle analysis (PI DNA content, flow cytometry); assay type: cell-based, human; settings: KOPN-8, 24 h; silvestrol 5 µM, 8 5 µM, 9 10 µM, 10 5 µM, 12 10 µM, 13 10 µM
# Description: (§2) The samples were probed with AnnexinV-FITC (Roche/Boehringer Mannheim, Indianapolis, IN, USA) according to the manufacturer’s instructions. KOPN-8 or SUB-P15 cells were plated (1.00 × 10^6 cells/plate) and incubated for 12 h and incubated at 37 °C. Then, cells were treated with compounds or controls for 24 h. Cells were stained with AnnexinV-FITC, PI and the staining profiles were determined with FACScan and Cell-Quest software. For cellular DNA content, the same cell treatment as above was performed. Then, cells were fixed in cold 75% ethanol, treated with RNase and then stained with PI solution (50 µg/mL). Cell cycle distribution was analyzed with the FACSCalibur analyzer (BD Biosciences, Franklin Lakes, NJ, USA) and Cell-Quest software. The percentage of DNA content at different phases of the cell cycle was analyzed with ModFit-software (version 5.0, Verity Software House, Topsham, ME, USA).
# SUP-B15 = test: as above; assay type: cell-based, human; settings: SUP-B15, 24 h; silvestrol 5 µM, 8 5 µM, 9 10 µM, 10 5 µM, 12 10 µM, 13 10 µM
# Description: as §2
# NALM-06 = test: CTG viability assay (CellTiter-Glo, 72 h); assay type: cell-based; settings: Homo sapiens, mean ± SEM of triplicates
# Description: (§3) All human cell lines were incubated at 37 °C in a 5% CO2 atmosphere and maintained under sterile conditions. Cells were tested for Mycoplasma (Lonza, Alpharetta, GA, USA) using the manufacturer’s conditions prior to experiments. Cell lines were purchased from American Type Culture Collection (ATCC, Manassas, VA, USA) or Leibniz-Institute Deutsche Sammlung von Mikroorganismen und Zellkulturen GmbH (DSMZ, Braunschweig, Germany) and cultured without antibiotics unless stated. Leukemia cells were cultured in RPMI and supplemented with 10% fetal bovine serum (FBS, Hyclone, Logan, UT, USA). SUP-B15, and KOPN-8 lines were cultured in RPMI supplemented with 10% FBS (Hyclone), 1% GlutaMAX™, 1% Pen/Step, and 0.1% β-mercaptoethanol. BJ cells were cultured in EMEM media supplemented with 10% FBS (Hyclone). Breast cancer cells (MDA-MB-231 & SUM149) were cultured in DMEM and Ham’s F12 respectively, supplemented with 10% FBS, 1% GlutaMAX™, 1% Pen/Step, and 2 µM cortisol/1 µg/mL insulin for SUM149. Both cells were grown to 80% confluence densities as recommended by ATCC. PBMCs were supplemented with concanavalin-A (5 μg/mL) and IL-2 (50 U/ml). To test general cytotoxicity, the following cell numbers were used for 384 well plates: KOPN-8 (ACC 552, infant human B cell precursor acute lymphoblastic leukemia with MLL-MLLt1/ENL fusion, 1000 cells/well), SUP-B15 (ACC389, human B cell precursor acute lymphoblastic leukemia of pediatric second relapse carrying the ALL-variant (m-bcr) of BCR-ABL1 fusion gene (e1-a2), 1600 cells/well), NALM-06 (DSMZ ACC128, non-T/non-B ALL at relapse with P15INK4B and P16INK4A deletions, 1200 cells/well), UoC-B1 (pediatric BCP-ALL at second relapse with TCF3/E2A-HFL fusion, 1000 cells/well), BJ (CRL-2522, normal human foreskin fibroblast cells, 400 cells/well) and PBMCs (periphery blood monocyte cells from healthy donors, IBC#BDC046, 10,000 cells/well).
# (§4) Cytotoxicity evaluation was performed using the CellTiter-Glo Luminescent Cell Viability Assay kit (G7570, Promega, Madison, WI, USA), according to the manufacturer’s instructions. Briefly, the cell concentrations used were experimentally determined to ensure logarithmic growth during the 72-h duration of the experiment, and avoid adverse effects on cell growth by DMSO exposure. 1 × 10^3–4.8 × 10^3 or 4 × 10^2–1.2 × 10^3 cells/well were seeded in 96 or 384-well white flat-bottomed plates (3610 or 8804BC, Corning, Corning, NY, USA) in 100 µL or 30 µL/well, respectively. The plates were incubated at 37 °C in 5% CO2 for 24 h before drugging. Test compounds (10 mM in DMSO) in nine 3-fold serial dilutions were dispensed via pintool (Biomek liquid handler, Beckman, Indianapolis, USA) to assay plates. The final concentration of DMSO was 0.3% (v/v) in each well. The positive controls included staurosporine (10 μM), and gambogic acid (10 μM). The plates were incubated for 72 h at 37 °C in 5% CO2, then quenched with CellTiter-Glo® (Promega, Madison, WI, USA, 50 µL/96 or 30 µL/384), centrifuged at 1000 rpm for 1 min and incubated at RT for 20 min. Luminescence was recorded with a plate reader (Envision, Perkin Elmer, Waltham, MA, USA). The mean luminescence of each experimental treatment group was normalized as a percentage of the mean intensity of untreated controls. EC50 values were calculated by Pipeline Pilot software (Accelrys, Enterprise Platform, San Diego, CA, USA).
# KOPN-8 [2] = test: CTG viability assay (CellTiter-Glo, 72 h); assay type: cell-based; settings: Homo sapiens, mean ± SEM of triplicates
# Description: as §3, §4
# UoC-B1 = test: CTG viability assay (CellTiter-Glo, 72 h); assay type: cell-based; settings: Homo sapiens, mean ± SEM of triplicates
# Description: as §3, §4
# PBMC = test: CTG viability assay (CellTiter-Glo, 72 h); assay type: cell-based; settings: Homo sapiens, non-cancerous cells
# Description: as §3, §4
# [3] = Metabolic stability in liver microsomes; assay type: in vitro ADME; settings: for half-life: read-out: metabolic stability t1/2
# From the text: as §1
# Plasma stability assay = assay type: in vitro ADME; settings: read-out: plasma stability t1/2
# From the text: as §1
half-life ([3]; human liver microsomes) [h],half-life ([3]; mouse liver microsomes) [h],SMILES,reduction of cell viability (SUM149) [%],aqueous solubility (Aqueous solubility),cell cycle effect (KOPN-8 [1]),cell cycle effect (SUP-B15),EC50 (NALM-06) [µM],EC50 (KOPN-8 [2]) [µM],EC50 (UoC-B1) [µM],EC50 (PBMC) [µM],metabolic stability t1/2 ([3]; human liver microsomes),metabolic stability t1/2 ([3]; mouse liver microsomes),half-life (Plasma stability assay; human plasma) [h],half-life (Plasma stability assay; mouse plasma) [h]
–,–,"COC1=C[C@]23CCCN2CCc2cc4c(cc2[C@@H]3[C@@H]1O)OCO4 [Compound 9, cephalotaxine]",50,good,no significant cell arrest,no significant cell arrest,9.5 ± 2.7,23.1 ± 5.2,17.6 ± 5.8,> 83,rapidly degraded,rapidly degraded,> 25,> 25
≥ 1,≥ 1,"COC(=O)C[C@](O)(CCCC(C)(C)O)C(=O)O[C@@H]1C(OC)=C[C@]23CCCN2CCc2cc4c(cc2[C@H]13)OCO4 [Compound 10, homoharringtonine, reference compound]",–,good,almost identical to silvestrol,almost identical to silvestrol,0.0322 ± 0.01,0.0799 ± 0.01,0.0129 ± 0.002,6.35,–,–,> 12,< 1
